One molecule from ChEMBL document CHEMBL5380836, “Design and Structural Optimization of Methionine Adenosyltransferase 2A (MAT2A) Inhibitors with High In Vivo Potency and Oral Bioavailability” (J Med Chem, 2023) can be followed below.

As usually defined, the half-life is the time needed for the level to fall by half in the phase considered. High values mean slow loss, low ones fast loss. A word on the IC50: it is the concentration that gives 50% inhibition. In general, Tmax refers to the time at which the peak concentration occurs. As usually defined, the Papp A→B is how fast a substance crosses the layer from the apical side. Broadly, the MRT is the average time that molecules of a dose stay in the body. In general, efflux ratio refers to a quotient of directional permeabilities that is used to spot active efflux. In general, AUC refers to the area under the concentration-time curve, a measure of exposure. Lower therefore signals less exposure. In general, Cmax refers to the highest concentration seen after dosing.

Calls of active or inactive are those of the source.

Series [1] is described as follows: Half life in ICR mouse at 10 mg/kg, po via gavage measured for 0.083 to 24 hrs by LC-MS analysis. Type of series: ADME, organism-based. Conditions: in vivo, time 0.083-24 hrs.
Series [2] has as its system HCT-116. The series is described as follows: Antitumor activity against human HCT-116 cells expressing MTAP-/- xenografted in BALB/c mouse assessed as decrease in tumor volume at 50 mg/kg, po qd measured after 6 days. Conditions: time 6.0 day. Type of series: functional, organism-based. A general note: In xenograft studies the graft and the host belong to different species.

The subject of series [3] is HCT-116. Kind of series: Antiproliferative activity against human HCT-116 cells assessed as inhibition of cell proliferation incubated for 4 days by fluorescence based assay. The format is functional. Conditions: HCT-116, 96 h.
Series [4] can be described thus: Tmax in ICR mouse at 10 mg/kg, po via gavage measured for 0.083 to 24 hrs by LC-MS analysis. Particulars: in vivo, time 0.083-24 hrs. The format is ADME, organism-based.
For a further series, the target named is Cytochrome P450 3A4 (Homo sapiens, UniProt P08684). The series is described as follows: Inhibition of CYP3A4 in human liver microsomes using midazolam as substrate preincubated for 10 mins followed by substrate addition measured after 10 mins in presence of NADPH by LC-MS analysis. The format is ADME, Microsome. In general terms: Liver microsomes are a subcellular fraction often used to study metabolism.
Sequence of Cytochrome P450 3A4 (P08684 whole entry): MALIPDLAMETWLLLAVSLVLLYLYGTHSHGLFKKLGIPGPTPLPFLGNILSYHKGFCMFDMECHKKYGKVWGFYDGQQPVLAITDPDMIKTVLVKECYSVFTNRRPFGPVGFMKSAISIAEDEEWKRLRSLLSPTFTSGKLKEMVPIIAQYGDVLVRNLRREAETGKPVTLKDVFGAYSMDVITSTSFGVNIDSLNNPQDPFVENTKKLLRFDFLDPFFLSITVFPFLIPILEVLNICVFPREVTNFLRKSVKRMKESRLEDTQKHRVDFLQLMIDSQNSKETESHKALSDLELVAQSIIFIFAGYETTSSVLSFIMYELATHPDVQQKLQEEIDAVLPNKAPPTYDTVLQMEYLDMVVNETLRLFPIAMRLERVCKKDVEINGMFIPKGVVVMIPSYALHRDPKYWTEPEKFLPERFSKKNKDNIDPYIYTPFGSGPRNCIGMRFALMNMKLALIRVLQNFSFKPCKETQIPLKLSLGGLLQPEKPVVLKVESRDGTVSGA

The target in the next series is Cytochrome P450 2C9 (Homo sapiens, UniProt P11712). Kind of series: Inhibition of CYP2C9 in human liver microsomes using diclofenac as substrate preincubated for 10 mins followed by substrate addition measured after 10 mins in presence of NADPH by LC-MS analysis. Type of series: ADME, Microsome.
Sequence of Cytochrome P450 2C9 (P11712 whole entry): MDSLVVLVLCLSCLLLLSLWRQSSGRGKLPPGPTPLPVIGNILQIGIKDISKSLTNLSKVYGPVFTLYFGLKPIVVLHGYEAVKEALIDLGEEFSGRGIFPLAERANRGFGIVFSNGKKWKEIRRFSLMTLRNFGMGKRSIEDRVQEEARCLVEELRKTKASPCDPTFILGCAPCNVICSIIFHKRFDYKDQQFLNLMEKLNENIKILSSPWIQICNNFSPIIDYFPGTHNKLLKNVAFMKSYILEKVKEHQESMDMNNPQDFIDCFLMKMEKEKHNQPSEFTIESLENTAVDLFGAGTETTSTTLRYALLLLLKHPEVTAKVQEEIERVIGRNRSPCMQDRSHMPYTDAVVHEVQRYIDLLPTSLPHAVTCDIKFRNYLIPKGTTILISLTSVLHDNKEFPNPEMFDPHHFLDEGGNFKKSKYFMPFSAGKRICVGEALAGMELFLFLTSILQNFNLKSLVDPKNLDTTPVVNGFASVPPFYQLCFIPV
A short description of series [5]: Toxicity in BALB/c mouse xenografted with human HCT-116 cells expressing MTAP-/- assessed as body weight loss at 50 mg/kg, po qd measured for 18 days relative to control. The format is organism-based. Particulars: in vivo, 432 h, time 18 day.
Series [6] can be described thus: Toxicity in BALB/c mouse xenografted with human HCT-116 cells expressing MTAP-/- assessed as drug tolerance at 50 mg/kg, po qd measured for 18 days. The format is organism-based. Particulars: in vivo, 432 h, time 18 day.
In series [7] the target is S-adenosylmethionine synthase isoform type-2 (Homo sapiens, UniProt P31153). Kind of series: Inhibition of recombinant MAT2A (unknown origin) expressed in baculovirus infected Sf9 insect cells using L-methionine as substrate preincubated for 15 mins followed by substrate addition measured after 60 mins by Kinase-Glo Luminescent assay.
Sequence of S-adenosylmethionine synthase isoform type-2 (P31153 whole entry, canonical isoform): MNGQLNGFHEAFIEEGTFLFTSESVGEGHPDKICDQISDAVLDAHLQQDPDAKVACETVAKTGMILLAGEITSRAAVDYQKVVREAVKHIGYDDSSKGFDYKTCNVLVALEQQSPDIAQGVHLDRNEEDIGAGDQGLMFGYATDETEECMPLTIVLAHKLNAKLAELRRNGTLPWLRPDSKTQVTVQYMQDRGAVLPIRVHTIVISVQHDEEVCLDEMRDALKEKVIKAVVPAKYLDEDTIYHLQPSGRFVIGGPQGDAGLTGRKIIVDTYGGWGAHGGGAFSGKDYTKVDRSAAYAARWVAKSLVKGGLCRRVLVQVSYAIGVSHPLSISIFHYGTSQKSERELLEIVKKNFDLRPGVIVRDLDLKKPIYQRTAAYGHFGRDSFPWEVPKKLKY
Series [8] in a line: Apparent permeability of the compound across apical to basolateral side in MDCKII-MDR1 cells at 2 uM incubated for 2.5 hrs by LC-MS/MS analysis. The format is ADME, cell-based, Canis lupus familiaris. Particulars: dog, MDCK-MDR1.
The next series addresses T1, Cytochrome P450 1A2 (Homo sapiens, UniProt P05177).
T1 sequence (P05177 whole entry): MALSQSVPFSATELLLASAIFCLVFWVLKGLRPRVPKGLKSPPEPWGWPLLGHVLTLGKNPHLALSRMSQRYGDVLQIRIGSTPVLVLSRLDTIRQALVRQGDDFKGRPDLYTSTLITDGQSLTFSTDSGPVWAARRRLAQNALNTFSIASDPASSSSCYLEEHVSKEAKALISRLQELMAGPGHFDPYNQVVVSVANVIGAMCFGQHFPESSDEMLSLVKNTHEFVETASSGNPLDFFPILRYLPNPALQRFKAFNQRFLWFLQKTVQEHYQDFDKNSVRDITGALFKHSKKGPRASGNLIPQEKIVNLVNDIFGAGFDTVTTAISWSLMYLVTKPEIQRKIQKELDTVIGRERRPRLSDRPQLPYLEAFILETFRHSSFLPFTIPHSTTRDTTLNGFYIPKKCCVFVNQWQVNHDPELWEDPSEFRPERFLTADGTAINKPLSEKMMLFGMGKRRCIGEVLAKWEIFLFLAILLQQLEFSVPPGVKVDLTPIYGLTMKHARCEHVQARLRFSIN
The series is described as follows: Inhibition of CYP1A2 in human liver microsomes using phenacetin as substrate preincubated for 10 mins followed by substrate addition measured after 10 mins in presence of NADPH by LC-MS analysis. The format is ADME, Microsome.

For series [9], the system named is HCT-116. Kind of series: Antiproliferative activity against human HCT-116 cells expressing MTAP-/- assessed as inhibition of cell proliferation incubated for 4 days by fluorescence based assay. Type of series: functional. Particulars: HCT-116, 96 h.
Series [10] in a line: MRT in ICR mouse at 10 mg/kg, po via gavage measured for 0.083 to 24 hrs by LC-MS analysis. The format is ADME, organism-based. Conditions: in vivo, time 0.083-24 hrs.
In series [11] the test system is HCT-116. Kind of series: Antitumor activity against human HCT-116 cells expressing MTAP-/- xenografted in BALB/c mouse assessed as tumor regression at 50 mg/kg, po qd measured after 18 days relative to control. Conditions: time 18 day. The format is functional.
A short description of series [12]: Efflux ratio of apparent permeability from basolateral to apical side over apical to basolateral side in MDCKII-MDR1 cells at 2 uM incubated for 2.5 hrs by LC-MS/MS analysis. The format is ADME, cell-based, Canis lupus familiaris. Particulars: dog, MDCK-MDR1.
In series [13] the target is Voltage-gated inwardly rectifying potassium channel KCNH2 (Homo sapiens, UniProt Q12809). Kind of series: Inhibition of hERG potassium ion channel expressed in CHO cells at -80 mV holding potential treated for 2.5 mins by Q patch-clamp method. The format is toxicity, cell-based.
Sequence of Voltage-gated inwardly rectifying potassium channel KCNH2 (Q12809 whole entry): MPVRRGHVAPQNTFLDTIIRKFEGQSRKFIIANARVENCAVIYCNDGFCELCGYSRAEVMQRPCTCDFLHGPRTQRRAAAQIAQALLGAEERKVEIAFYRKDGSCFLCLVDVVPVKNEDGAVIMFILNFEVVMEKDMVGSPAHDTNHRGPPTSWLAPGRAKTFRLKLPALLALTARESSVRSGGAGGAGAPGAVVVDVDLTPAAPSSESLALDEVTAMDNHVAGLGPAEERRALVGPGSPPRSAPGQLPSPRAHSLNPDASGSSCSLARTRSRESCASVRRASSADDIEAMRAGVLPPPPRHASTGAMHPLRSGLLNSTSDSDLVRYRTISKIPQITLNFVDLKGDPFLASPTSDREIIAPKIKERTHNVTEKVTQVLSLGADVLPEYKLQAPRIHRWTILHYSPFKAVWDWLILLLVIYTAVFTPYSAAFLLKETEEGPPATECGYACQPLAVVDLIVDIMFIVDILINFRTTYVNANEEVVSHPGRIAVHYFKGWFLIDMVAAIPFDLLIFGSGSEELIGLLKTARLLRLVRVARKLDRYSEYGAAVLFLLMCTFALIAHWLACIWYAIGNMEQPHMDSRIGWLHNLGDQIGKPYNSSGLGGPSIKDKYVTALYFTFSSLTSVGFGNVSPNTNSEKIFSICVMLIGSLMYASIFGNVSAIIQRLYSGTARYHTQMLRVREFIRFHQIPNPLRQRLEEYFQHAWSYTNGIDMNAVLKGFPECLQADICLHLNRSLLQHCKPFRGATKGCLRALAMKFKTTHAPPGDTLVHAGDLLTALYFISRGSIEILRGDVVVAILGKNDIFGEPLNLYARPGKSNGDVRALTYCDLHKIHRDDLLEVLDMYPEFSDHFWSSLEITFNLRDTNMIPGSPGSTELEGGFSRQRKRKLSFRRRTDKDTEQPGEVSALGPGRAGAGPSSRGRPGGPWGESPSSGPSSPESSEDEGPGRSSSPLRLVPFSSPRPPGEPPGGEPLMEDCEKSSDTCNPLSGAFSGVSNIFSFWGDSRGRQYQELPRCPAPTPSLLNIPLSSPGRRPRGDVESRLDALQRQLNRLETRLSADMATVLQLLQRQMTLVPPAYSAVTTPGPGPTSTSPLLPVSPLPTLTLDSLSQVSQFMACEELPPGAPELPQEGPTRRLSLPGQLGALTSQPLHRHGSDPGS
Series [14] in a line: AUC in ICR mouse at 10 mg/kg, po via gavage measured for 0.083 to 24 hrs by LC-MS analysis. Particulars: in vivo. On the set-up: dose 10 mg/kg, time upper 24 hrs, time lower 0.083 hrs, route po. The format is ADME, organism-based.
Series [15] is described as follows: Cmax in ICR mouse at 10 mg/kg, po via gavage measured for 0.083 to 24 hrs by LC-MS analysis. The format is ADME, organism-based. Conditions: in vivo. On the set-up: time upper 24 hrs, dose 10 mg/kg, time lower 0.083 hrs, route po.
The nature of series [16]: Intrinsic clearance in human liver microsomes at […] incubated for 5 to 60 mins in presence of NADPH by LC-MS analysis. Conditions: time 5-60 min. The format is ADME, Microsome.
Series [17] has as its target UDP-glucuronosyltransferases (UGTs). The series is described as follows: Inhibition of UGT (unknown origin) preincubated for 10 mins followed by substrates addition measured after 10 mins by LC-MS analysis. Type of series: ADME, protein assay, Homo sapiens.
Another series addresses Cytochrome P450 2C19 (Homo sapiens, UniProt P33261). The series is described as follows: Inhibition of CYP2C19 in human liver microsomes using S-mephenytoin as substrate preincubated for 10 mins followed by substrate addition measured after 10 mins in presence of NADPH by LC-MS analysis. Type of series: ADME, Microsome.
The target in a further series is Cytochrome P450 2D6 (Homo sapiens, UniProt P10635). The series is described as follows: Inhibition of CYP2D6 in human liver microsomes using dextromethorphan as substrate preincubated for 10 mins followed by substrate addition measured after 10 mins in presence of NADPH by LC-MS analysis. The format is ADME, Microsome.
Sequence of Cytochrome P450 2D6 (P10635 whole entry): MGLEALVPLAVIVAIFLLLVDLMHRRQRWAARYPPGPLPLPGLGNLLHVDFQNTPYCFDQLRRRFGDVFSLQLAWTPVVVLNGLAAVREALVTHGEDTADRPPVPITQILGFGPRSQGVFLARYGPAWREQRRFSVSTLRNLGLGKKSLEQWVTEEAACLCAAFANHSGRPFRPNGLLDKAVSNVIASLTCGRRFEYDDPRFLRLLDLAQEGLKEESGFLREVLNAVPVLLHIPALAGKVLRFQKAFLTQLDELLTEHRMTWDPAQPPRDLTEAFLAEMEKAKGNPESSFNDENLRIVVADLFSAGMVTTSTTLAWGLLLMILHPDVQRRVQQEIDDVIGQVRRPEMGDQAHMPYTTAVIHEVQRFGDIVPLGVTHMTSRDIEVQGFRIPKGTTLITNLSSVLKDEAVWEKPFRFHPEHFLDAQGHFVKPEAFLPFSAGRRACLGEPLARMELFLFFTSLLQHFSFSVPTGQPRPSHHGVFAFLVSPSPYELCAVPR

Sequence of Cytochrome P450 2C19 (P33261 whole entry): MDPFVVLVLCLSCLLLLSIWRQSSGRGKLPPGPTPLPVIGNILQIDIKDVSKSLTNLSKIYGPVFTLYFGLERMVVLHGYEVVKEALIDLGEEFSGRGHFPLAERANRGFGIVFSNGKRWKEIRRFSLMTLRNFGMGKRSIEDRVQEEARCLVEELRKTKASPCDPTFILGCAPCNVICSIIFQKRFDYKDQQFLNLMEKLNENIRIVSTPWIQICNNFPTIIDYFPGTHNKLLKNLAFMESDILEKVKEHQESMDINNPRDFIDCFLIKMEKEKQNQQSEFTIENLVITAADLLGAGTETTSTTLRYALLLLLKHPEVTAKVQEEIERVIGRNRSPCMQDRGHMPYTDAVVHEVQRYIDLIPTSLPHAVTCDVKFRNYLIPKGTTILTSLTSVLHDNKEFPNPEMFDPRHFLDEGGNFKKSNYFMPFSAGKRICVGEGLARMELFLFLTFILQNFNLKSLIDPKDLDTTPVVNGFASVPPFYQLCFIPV

Take `CCOc1ccc2c(=O)n(-c3ccc4nc5n(c4c3)CCN(C)C5)c(=O)n(-c3ccc(OC(F)F)cc3)c2n1`: the half-life in [1] is 179 min. Also, the outcome in the series on HCT-116 [2] was Active. The half-inhibitory concentration (IC50) was above 10 µM in the series with HCT-116 [3]; 36.9 µM on Cytochrome P450 3A4; 39.2 µM on Cytochrome P450 2C9; 26 nM in [7]; above 50 µM at Cytochrome P450 1A2; 75 nM in the series with HCT-116 [9]. For the same molecule, the IC50 in [13] was above 50 µM; in series [17], above 50 µM; on Cytochrome P450 2C19, 29 µM; on Cytochrome P450 2D6 it was above 50 µM. In series [4], the Tmax was found to be 40.2 min. Further, the Activity in series [5] is on record as 12%; in series [6], “Non-Toxic”; in the series on HCT-116 [11], -52%. Further, in [8], the apical-to-basolateral permeability (Papp A→B) at 2.5 h, 2 µM was 2.9 ×10⁻⁶ cm/s. In addition, the MRT in series [10] is 4.71 h. Further, the efflux ratio at 2.5 h, 2 µM in [12] is 8. For the same molecule, in series [14], the AUC was determined as 41200 ng·h/mL. In series [15], this molecule gave a Cmax of 6730 ng/mL. The CLint in [16] is 20.1 µL/min/mg.
